In patent publication US5532265A, “Treatment of central nervous system inflammatory disease with matrix metalloprotease inhibitors” (The Board of Trustees of the Leland Stanford Junior …, priority 1994, dated 1996):

Columns and labels:
gelatinase B = details: cited from earlier work
EAE in SJL/J mice [1] = assay: Histopathology of brain and spinal cord (inflammation, demyelination); type: in vivo; details: for Demyelination Brain + SC / Inflammation Brain / Inflammation Spinal Cord: 1 × 1.33 mg/d i.p.; for Demyelination Brain + SC: demyelination score; for Inflammation Brain / Inflammation Spinal Cord: total inflammatory score
Procedure: Sections were stained with hematoxylin and eosin, Kluver-Barrera and Giemsa stain. Histopathology was assessed as follows. Individual inflammatory lesions were scored as 1=perivascular inflammatory cuff≤three cells thick, 2=>three cells thick. 3=parenchymal infiltrate. The total inflammatory score was then calculated by adding all the scores for individual lesions from all the sections for a given sample. The demyelination score was calculated the same way as inflammatory score, with 1=demyelinated rim around infiltrate, 2=demyelination extending into noninfiltrated tissue.

[2] = test system: gelatinase A and B in the CSF from animals with EAE; assay: In vitro inhibition of gelatinase activity in CSF (SDS/PAGE zymography); type: biochemical, mice
Procedure: In vitro inhibition of gelatinase activity. Gelatinase activity in a pooled CSF sample from animals with clinical signs of EAE (grade 2-3 for 4-5 d) was determined by SDS/PAGE zymography. CSF was applied without prior denaturation to a single-well 7.5% (wt/vol) polyacrylamide gel containing 0.1% (wt/vol) SDS to which 0.1% (wt/vol) tissue culture grade gelatin (Sigma Chemical Co., St. Louis, Mo.) was added and copolymerized. […] The gel (7 cm×10 cm×0.75 mm) was run for approximately 2 h at 20 mA. After electrophoresis the gel was washed (washing buffer: 50 mM Tris-HCL, 10 mM CaCl2, 0.02% (wt/vol) NaN3, 2.5% (vol/vol) Triton X-100, pH 7.5) to remove the SDS and sliced into strips. The resulting strips were incubated separately at 37° C. during 24 h (same buffer as for the washing, containing only 1% [vol/vol] Triton X-100) for development of the enzyme activity, stained with Coomassie brilliant blue R-250 and destained in methanol/acetic acid. Gelatinase activity was detected as unstained bands on a blue background. To assess the effect of protease inhibitors on the gelatinase activity present in the CSF, metalloprotease inhibitors (dissolved in DMSO) were added to the incubation buffer. GM 6001 was used at final concentrations from 0.1 to 33 μM; 1,10-phenanthroline (Sigma Chemical Co.) was used as a positive control at 2.5 mM, and the noninhibitor lane was incubated in 0.5% (vol/vol) DMSO.

[3] = In vivo inhibitor kinetics (GM 6001 concentration in CSF); parameters: species or system mice; details: for concentration at 3 h: for at least 3 h
Procedure: In vivo inhibitor kinetics. Normal noninduced animals or animals with clinical signs of EAE for 2 d were given a single intraperitoneal injection of 4 mg GM 6001 and euthanized by CO2 inhalation after various time intervals. CSF was taken by suboccipital puncture. Pooled CSF from five animals per time point was frozen immediately at -70° C. GM 6001 concentrations were determined by reversed-phase HPLC by Bay Bioanalytical Laboratories, Richmond, Calif. was diluted into 20% acetonitrile in water and chromatographed on a C-18 reversed-phase column with fluorescence detection. Linearity was determined by spiking blank CSF with increasing amounts of GM 6001. The amount of GM 6001 in CSF samples was calculated based on recovery of GM 6001 and the internal standard in spiked samples. The lower limit for quantification of GM 6001 in the CSF samples was 60 ng/rnl.

EAE in SJL/J mice [4] = assay: Clinical scoring of EAE; type: in vivo; parameters: key to Change in average cumulative score During treatment / Change in average cumulative score After treatment: change in cumulative EAE grade; 0 = no signs, 5 = death
Procedure: EAE induction, Female SJL/J mice (Jackson Laboratory, Bar Harbor, Me.) were used at 5-7 week of age. […] PLP peptide 139-151 was prepared by continuous flow solid phase synthesis according to the sequence (SEQ ID NO 1 ) HCLGKWLGHPDKF by the Protein and Nucleic Acid Facility, Beckman Center, Stanford, Calif. Peptide purity was examined by HPLC analysis and peptide identity was confirmed by amino-acid composition analysis.
EAE was scored clinically as follows: no neurological signs=grade 0, weak tail=grade 1, wobbly walk or limb paresis=grade 2, limb paralysis=grade 3, inability to move=grade 4, death=grade 5. Easy access to food and water was provided and animals with grade 3 or 4 received daily parenteral fluid.
[…] The same volume of vehicle was used as a control treatment. Animals were treated daily either from the day of disease induction for 20 d or from the onset of clinical signs for 10 d (randomized for the different treatment groups).

EAE in SJL/J mice [5] = assay: Blood-brain barrier permeability (Evans blue); type: in vivo
Procedure: Mice were injected intravenously with 1% (wt/vol) Evans blue (Fisher Scientific Co., Fair Lawn, N.J.) in PBS at a dosage of 4 μl/g body weight. After 1 h the animals were euthanized by CO2 inhalation and perfused with PBS via the left ventricle. Brain and spinal cord were dissected and cut longitudinally. Half of the CNS was used for histopathological evaluation. The other half was weighed and tissue samples were then extracted for 3 d in formamide (5 μl/mg tissue) and the extracts centrifuged for 5 min at 500 g. Evans blue concentration in the extracts was determined by measuring the absorbance at 650 nm. The blood-brain barrier permeability index was calculated by dividing the value for each sample by the corresponding (brain or spinal cord) mean value of four normal noninduced animals.

[6] = 3 days of treatment from onset of clinical signs
[7] = 10 days of treatment from onset of clinical signs
[8] = animals with EAE, single intraperitoneal dose of 4 mg
[9] = Experiment 1, from disease induction for 20 d, 2X/d 2.00 mg i.p.
[10] = Experiment 1, from onset of clinical signs for 10 d, 2X/d 2.00 mg i.p.
[11] = Experiment 2, from disease induction for 20 d, 1X/d 0.13 mg i.p.
[12] = Experiment 2, from disease induction for 20 d, 1X/d 0.40 mg i.p.
[13] = Experiment 2, from disease induction for 20 d, 1X/d 1.33 mg i.p.
[14] = Experiment 2, from disease induction for 20 d, 1X/d 4.00 mg i.p.
[15] = Experiment 2, from onset of clinical signs for 10 d, 1X/d 0.13 mg i.p.
[16] = Experiment 2, from onset of clinical signs for 10 d, 1X/d 0.40 mg i.p.
[17] = Experiment 2, from onset of clinical signs for 10 d, 1X/d 1.33 mg i.p.
[18] = Experiment 2, from onset of clinical signs for 10 d, 1X/d 4.00 mg i.p.

CNC(=O)[C@H](Cc1c[nH]c2ccccc12)NC(=O)[C@@H](CC(=O)NO)CC(C)C [GM 6001, N-[2(R)-2-(hydroxamidocarbonylmethyl)-4-methylpentanoyl]-L-tryptophan methylamide]
Ki (gelatinase B): 200 pM | Demyelination Brain + SC (EAE in SJL/J mice [1]; [6]): 3.7 ± 0.88 | Inflammation Brain (EAE in SJL/J mice [1]; [6]): 31.7 ± 5.17 | Inflammation Spinal Cord (EAE in SJL/J mice [1]; [6]): 14.7 ± 1.67 | Demyelination Brain + SC (EAE in SJL/J mice [1]; [7]): 2.3 ± 0.63 | Inflammation Brain (EAE in SJL/J mice [1]; [7]): 21.0 ± 3.14 | Inflammation Spinal Cord (EAE in SJL/J mice [1]; [7]): 15.0 ± 3.24 | inflammatory and demyelination scores compared with vehicle (EAE in SJL/J mice [1]; after 3 and 10 d of treatment, 1×1.33 mg/d from onset, differences not statistically significant): lower after 3 and 10 d of treatment with GM 6001 in all but one group | inhibition of gelatinase A compared with gelatinase B in CSF ([2]; CSF from animals with EAE): equally well inhibited | inhibition of gelatinase activity in CSF ([2]; GM 6001 at 1 μM to 33 μM, pooled CSF from animals with EAE, zymography): completely inhibited all gelatinase activity | inhibition of gelatinase activity in CSF ([2]; GM 6001 at 0.1 and 0.33 μM, pooled CSF from animals with EAE, zymography): partial inhibition | duration of detectable levels in the CSF [3, 8]: at least 4 h | time after injection at which detectable levels in the CSF start [3, 8]: 30 min | concentration at 8 h ([3]; mouse, csf, ip, animals with EAE, single i.p. dose of 4 mg, after 8 hours): 100 ng/mL | concentration at 16 h ([3]; mouse, csf, ip, animals with EAE, single i.p. dose of 4 mg, after 16 hours): < 60 ng/mL | concentration at 3 h ([3]; mouse, csf, ip, animals with EAE, single i.p. dose of 4 mg): 100 to 200 ng/mL | concentration at 3 h ([3]; mouse, csf, ip, animals with EAE, single i.p. dose of 4 mg, converted from ng/ml): 250 to 500 nM | concentration in the CSF ([3]; normal noninduced animals, single i.p. dose of 4 mg): never rose above the detection limit | efficacy at low dose when given from disease induction (EAE in SJL/J mice [4]; 0.13 mg/d once daily, P<0.05 (4 and 1.33 mg/d P<0.005)): still effective | efficacy of single daily dose compared with 2×2 mg/d (EAE in SJL/J mice [4]; 4 mg/d once daily i.p., both treatment schedules): comparable efficacy | Change in average cumulative score After treatment (EAE in SJL/J mice [4]; [9]): 9.9 ± 2.17 | Change in average cumulative score During treatment (EAE in SJL/J mice [4]; [9]): 7.0 ± 2.57 | Change in average cumulative score After treatment (EAE in SJL/J mice [4]; [10]): -7.2 ± 2.69 | Change in average cumulative score During treatment (EAE in SJL/J mice [4]; [10]): -6.5 ± 2.08 | Change in average cumulative score After treatment (EAE in SJL/J mice [4]; [11]): 18.0 ± 9.82 | Change in average cumulative score During treatment (EAE in SJL/J mice [4]; [11]): 7.7 ± 3.09 | Change in average cumulative score After treatment (EAE in SJL/J mice [4]; [12]): 23.9 ± 4.96 | Change in average cumulative score During treatment (EAE in SJL/J mice [4]; [12]): 11.3 ± 0.94 | Change in average cumulative score After treatment (EAE in SJL/J mice [4]; [13]): 12.0 ± 3.83 | Change in average cumulative score During treatment (EAE in SJL/J mice [4]; [13]): 3.4 ± 1.77 | Change in average cumulative score After treatment (EAE in SJL/J mice [4]; [14]): 22.2 ± 4.61 | Change in average cumulative score During treatment (EAE in SJL/J mice [4]; [14]): 2.4 ± 1.16 | Change in average cumulative score After treatment (EAE in SJL/J mice [4]; [15]): -10.6 ± 5.67 | Change in average cumulative score During treatment (EAE in SJL/J mice [4]; [15]): 2.0 ± 1.92 | Change in average cumulative score After treatment (EAE in SJL/J mice [4]; [16]): -7.9 ± 4.44 | Change in average cumulative score During treatment (EAE in SJL/J mice [4]; [16]): -0.3 ± 2.03 | Change in average cumulative score After treatment (EAE in SJL/J mice [4]; [17]): -15.0 ± 5.79 | Change in average cumulative score During treatment (EAE in SJL/J mice [4]; [17]): -4.1 ± 1.81 | Change in average cumulative score After treatment (EAE in SJL/J mice [4]; [18]): -7.1 ± 7.86 | Change in average cumulative score During treatment (EAE in SJL/J mice [4]; [18]): -4.3 ± 2.69 | clinical severity of the disease compared with the vehicle-treated group (EAE in SJL/J mice [4]; FIG. 1, from disease induction for 20 d, 2×2 mg/d i.p., 10 animals per group): significantly reduced | disease score, treatment of clinical relapse (EAE in SJL/J mice [4]; FIG. 3, 1×4 mg/d for 10 days from onset of clinical relapse, nine animals): statistically significant difference | recovery from the drop in body weight associated with the onset of EAE (EAE in SJL/J mice [4]; experiment 2): recovered faster | clinical scores after start of treatment (EAE in SJL/J mice [4]; from onset of clinical signs for 10 d, 2×2 mg/d, P<0.005 vs vehicle up to two days after treatment): decreased the day after the start of treatment | animals returned to score 0 (clinically normal) within 12 d following the onset of clinical signs (EAE in SJL/J mice [4]; from onset of clinical signs for 10 d, 2×2 mg/d, vehicle 3 out of 10): 8 out of 10 | animals that returned to score 0 and had a clinical disease relapse during the follow-up period (EAE in SJL/J mice [4]; of the 8 recovered animals, 2×2 mg/d from onset for 10 d, vehicle all 3): 7 animals | reduction of disease severity when treated from disease onset (EAE in SJL/J mice [4]; once daily 4, 1.33, 0.40, 0.13 mg/d, P<0.05, FIG. 2): only 4 and 1.33 mg/d were significantly effective | Blood Brain Barrier Index Spinal Cord (EAE in SJL/J mice [5]; 3 days of treatment from onset of clinical signs, 1 × 1.33 mg/d i.p.): 0.7 ± 0.12 | Blood Brain Barrier Index Brain (EAE in SJL/J mice [5]; 3 days of treatment from onset of clinical signs, 1 × 1.33 mg/d i.p., ratio of permeability for Evan's blue): 1.1 ± 0.16 | Blood Brain Barrier Index Spinal Cord (EAE in SJL/J mice [5]; 10 days of treatment from onset of clinical signs, 1 × 1.33 mg/d i.p.): 1.1 ± 0.11 | blood-brain barrier index (EAE in SJL/J mice [5]; after 10 d of disease, 1×1.33 mg/d from onset, vehicle significantly elevated, P<0.05): normal

c1cnc2c(c1)ccc1cccnc12 [phenanthroline, 1,10-phenanthroline, reference compound]
inhibition of gelatinase activity in CSF ([2]; phenanthroline 2.5 mM, positive control): served as an inhibitory control
